Experimental data taken from patent US10947503B2, “Method for modifying T cell population” (International Institute of Cancer Immunology, Inc., priority 2014, dated 2021).

How the values were obtained:
[1] = tested on: human CD4+CD45RO+ T cells; assay: Modulation of T cell differentiation by RAR agonists and antagonists; format: cell-based; conditions: 8 days culture, vs DMSO
Excerpt: Human CD4^+CD45RO^+ T cells were stimulated with an anti-CD3/CD28 antibody and IL-2, and cultured in the presence of DMSO as a control, or various RAR agonists (FIG. 30) or RAR antagonists (FIG. 31) for 8 days.

[2] = tested on: human CD4+CD45RO+ T cells; assay: Suppression of RDH10 expression by shRNA: composition of T cell population; format: cell-based; conditions: compared with T cell population expressing control shRNA
Excerpt: A construct to express an shRNA targeting retinol dehydrogenase 10 and consisting of a sequence set forth in SEQ ID NO:18 (RDH10-targeting shRNA) was introduced into human CD4^+CD45RO^+ T cells. Specifically, using a lentivirus vector system, packaging cells (293T cell line) were co-transfected with a vector in which a DNA consisting of a nucleotide sequence of SEQ ID NO:19 was incorporated into a cloning site and a packaging vector to produce a recombinant virus, and the human CD4^+CD45RO^+ T cells were infected with the recombinant virus. Integration of the shRNA expression construct into a chromosome was confirmed based on the expression of GFP as a reporter which was located downstream of the shRNA expression construct. In the T cell population in which the RDH10-targeting shRNA was expressed by such a method, the proportion of terminal effector cells ([…]) was decreased and the proportion of central memory cells (CD127^+, CD62L^+) was increased, as compared with a T cell population in which a control shRNA (SEQ ID NO:20) was expressed by the same method (FIG. 2).

[3] = tested on: Tumor cells expressing both WT1 protein and luciferase; assay: Anti-tumor immunity induction with human WT1 peptide and RAR antagonist in NOG mice; format: in vivo, mouse; conditions: for survival period: intraperitoneal, compared with control (DMSO)
Protocol: Tumor cells expressing both WT1 protein and luciferase were subcutaneously implanted into a ventral part of NOD/Shi-scid, IL-2Rγnull mice (NOG mice). Three days after the implantation, 10^4 human WT1332-specific CD4^+ T cells (GPP positive) were injected intravenously (day 0). Eight hours after the intravenous injection, DMSO (control), retinoic acid or LE540 was administered intraperitoneally. One day after the intravenous injection, CD3^+ T cells were removed, and 2×10^6 human peripheral blood mononuclear cells which had been pulsed with the human WT1332 peptide were injected intravenously (day 1). Then, a survival period was observed. In addition, the amount of tumor was determined every week by administering luciferin which was a substrate for luciferase and measuring the intensity of emission induced by luciferase from outside the body.

[4] = tested on: human CD4+CD45RO+ T cells; assay: Enhancement of T cell differentiation by retinoic acid; format: cell-based; conditions: vs DMSO; stimulation with IL-2, anti-CD3/CD28 antibody, or both
Excerpt: Human CD4^+CD45RO^+ T cells were stimulated by various methods (IL-2, anti-CD3/CD28 antibody, and anti-CD3/CD28 antibody and IL2), and cultured in the presence of DMSO (control) or all-trans retinoic acid (hereinafter retinoic acid used in all Examples described below is all-trans retinoic acid). As a result, in the cell population cultured in the presence of retinoic acid, the proportion of central memory cells (upper right in a graph) was decreased, and the proportion of terminal effector cells (left lower in a graph) was increased (FIG. 19).

[5] = tested on: human CD4+CD45RO+ T cells; assay: Resistance to apoptosis after anti-Fas antibody (7C11) stimulation; format: cell-based; conditions: 8 days culture, then anti-Fas antibody
Protocol: Human CD4^+CD45RO^+ T cells were cultured in the presence of DMSO (control), retinoic acid or an RAR antagonist (LE540) for 8 days, and then stimulated with an anti-Fas antibody (7C11). The proportion of apoptotic cells and the proportion of living cells were determined and analyzed. As a result, the apoptotic cells were increased and the living cells were decreased by enhancing the differentiation of cells by retinoic acid. In contrast, when the differentiation was suppressed by the RAR antagonist, the apoptotic cells were decreased and the living cells were increased (FIG. 20).

[6] = tested on: human CD4+CD45RO+ T cells; assay: Division ability and proliferation ability of memory T cells after re-stimulation; format: cell-based; conditions: 8 days culture, re-stimulated with anti-CD3/CD28 antibody and IL-2, or IL-7
Protocol: Human CD4^+CD45RO^+ T cells were stimulated with an anti-CD3/CD28 antibody, cultured in the presence of DMSO (control), retinoic acid or an RAR antagonist (LE540) for 8 days, re-stimulated with an anti-CD3/CD28 antibody and IL-2, or IL-7, and cultured. The division ability and proliferation ability of the T cells were evaluated. For evaluation of the division ability, Cell Trace (trade name) Violet Cell Proliferation Kit (manufactured by Life Technologies) was used. As a result, when the differentiation of T cells was enhanced by retinoic acid, both the division ability and the proliferation ability were decreased, whereas when the differentiation was suppressed by the RAR antagonist, both the division ability and the proliferation ability were increased (FIG. 21).

[7] = tested on: human CD4+CD45RO+ T cells; assay: Ability to form memory T cell population after re-stimulation; format: cell-based; conditions: 8 days culture, re-stimulated and cultured for 7 days
Excerpt: Human CD4^+CD45RO^+ T cells were stimulated with an anti-CD3/CD28 antibody, cultured in the presence of DMSO (control), retinoic acid or an RAR antagonist (LE540) for 8 days, and re-stimulated and cultured with an anti-CD3/CD28 antibody and IL-2, or IL-7 for 7 days. The subsets of the T cells were identified.

[8] = tested on: terminal effector fraction of human WT1332-specific CD4+ T cell clone; assay: Induction of memory T cells from terminal effector T cells; format: cell-based
Excerpt: A terminal effector fraction contained in a human WT1332-specific CD4+ T cell clone derived from a single cell was stimulated with dendritic cells which had been pulsed with human WT1332, and cultured in the presence of DMSO (control), retinoic acid or an RAR antagonist (LE540) for 7 days. Then, the cells were labelled with CFSE, re-stimulated with dendritic cells which had been pulsed with human […], and further cultured in the presence of DMSO (control), retinoic acid or an RAR antagonist (LE540). After culturing for 4 or 6 days, the cells were subjected to an FACS analysis and a ^3H-thymidine incorporation assay (cell proliferation assay).

[9] = tested on: human CD4+ T cells transferred into NOG mouse; assay: Reformation ability of cultured T cells in body of immunodeficient mouse; format: in vivo; conditions: T cells in spleen 4 weeks after transfer
Protocol: Human CD4^+CD45RO^+ T cells were stimulated with an anti-CD3/CD28 antibody, cultured in the presence of DMSO (control), retinoic acid or an RAR antagonist (LE540) for 8 days, and then transferred together with human PBMC from which T cells were removed into the body of an immunodeficient mouse lacking T cells, B cells and NK cells (NOG mouse). After 4 weeks, T cells in the spleen of the mouse were analyzed.

[10] = tested on: CD4+ T cells with human WT1332-specific TCR gene; assay: WT1332-specific TCR-introduced CD4+ T cells: memory proportion and proliferation on re-stimulation; format: cell-based
Protocol: CD4^+ T cells into which a human WT1332-specific TCR gene was introduced were stimulated with human WT1332, and cultured in the presence of DMSO (control), retinoic acid or an RAR antagonist (LE540). As a result, when the T cells were cultured in the presence of the RAR antagonist, the proportion of memory-type CD4^+ T cells was increased (FIG. 24). Further, when the T cell population cultured in the presence of the RAR antagonist was re-stimulated with PBMC which had been pulsed with human WT1332, and cultured (T cell: 30,000 cells/well; PBMC: 100,000 cells/well; […]

[11] = tested on: human CD4+CD45RO+ T cells; assay: Culture with anti-CD3, anti-CD28, IL-2 and retinol for a week: cell number and intracellular cytokine assay (IFN-γ); format: cell-based; conditions: various concentrations of retinol, one week; retinol concentration-dependent
Protocol: The RDH10-targeting shRNA (sh #10-2, SEQ ID NO:18), or an shRNA targeting luciferase (sh-luc, SEQ ID NO:20) as a control was introduced into human CD4^+CD45RO^+ T cells using a lentivirus vector. In the same way, a lentivirus vector in which an RDH10 gene was incorporated was introduced into human CD4^+CD45RO^+ T cells to produce RDH10 high-expression T cells.
These cells were cultured in the presence of an anti-CD3 antibody, an anti-CD28 antibody and IL-2 together with various concentrations of retinol (all-trans type) for a week. Then, the number of cells was measured and at the same time, the frequency of cells producing IFN-γ was determined by an intracellular cytokine assay.

With CC1(C)CC=C(c2cnc3ccccc3c2)c2cc(C(=O)Nc3ccc(C(=O)O)cc3)ccc21 [BMS195614] as the compound, how does the “expression of CD62L” value [1] read?
Its value is “increased”.

And the “proportion of memory T cells (CD62L+CD127+ cells)” value (“proportion of memory T cells” below) [1]?
The value was “increased”.

How did the “expression of CD62L” value [1] turn out when CN1c2cc3c(cc2N=C(c2ccc(C(=O)O)cc2)c2ccccc21)C(C)(C)CCC3(C)C [LE135] was run?
The value was “increased”.

What about the “proportion of memory T cells” value [1] of the same compound?
The value was “increased”.

Which “expression of CD62L” value [1] does the source give for CC1(C)CCC(C)(C)c2cc(C(=O)Nc3ccc(C(=O)O)cc3)ccc21 [AM580] here?
Its value is “decreased”.

What about the “proportion of memory T cells” value [1] of the same compound?
Its value is “decreased”.

Which “expression of CD62L” value [1] does the source give for CC1(C)CCC(C)(C)c2cc(C3(c4ccc5cc(C(=O)O)ccc5c4)SCCS3)ccc21 [MM11253] here?
The value was “increased”.

And the “proportion of memory T cells” value [1]?
The value was “increased”.

“RDH10-targeting shRNA: shRNA targeting retinol dehydrogenase 10, sequence SEQ ID NO:18, expressed from a lentivirus vector (GUACACUUCUGGGCCACUGAACUUCCUGUCAUUUAGUGGUCCAGAAGUGUGC)” was tested. Which “proportion of central memory cells (CD127+, CD62L+)” value [2] did it give?
The value was “increased”.

And the “proportion of terminal effector cells” value [2]?
The value was “decreased”.

Which “expression of CD62L” value [1] does the source give for CCCCCCCCc1ccc(-c2ccc(C(=O)O)cc2)cc1 [AC55649] here?
Its value is “decreased”.

And the “proportion of memory T cells” value [1]?
Its value is “decreased”.

How did the survival period [3] turn out when CC1=C(/C=C/C(C)=C/C=C/C(C)=C/C(=O)O)C(C)(C)CCC1 [retinoic acid, all-trans retinoic acid] was run?
The survival period was “shortened”.

And the “proportion of central memory cells” value [4]?
The value was “decreased”.

What about the “proportion of terminal effector cells” value [4] of the same compound?
The value was “increased”.

And the “expression of CD62L” value [1]?
The value was “decreased”.

And the “proportion of memory T cells” value [1]?
The value was “decreased”.

What about the apoptotic cells [5] of the same compound?
Its apoptotic cells is “increased”.

And the living cells [5]?
The living cells was “decreased”.

And the “division ability of T cells” value [6]?
The value was “decreased”.

What about the “proliferation ability of T cells” value [6] of the same compound?
Its value is “decreased”.

What about the “appearance frequency of memory T cells” value [7] of the same compound?
Its value is “low”.

Which “induction of central memory CD4+ T cells from terminal effector CD4+ T cells” value ([8]; LE540) does the source give for CN1c2cc3c(cc2N=C(c2ccc(C(=O)O)cc2)c2ccc4ccccc4c21)C(C)(C)CCC3(C)C [LE540] here?
Its value is “induced again”.

And the “generation of memory T cells having high division ability and high proliferation ability” value ([8]; evaluation after re-stimulation)?
The value was “generated”.

What about the “tumor size (-fold increase relative to day 0)” value ([3]; day 21, compared with DMSO group and retinoic acid group) of the same compound?
Its value is “significantly small”.

What about the survival period [3] of the same compound?
The survival period was “extended”.

What about the “ability to proliferate in the body of the immunodeficient mouse” value [9] of the same compound?
Its value is “high ability to proliferate”.

And the “differentiation state of T cells in the mouse” value [9]?
Its value is “undifferentiated”.

And the “expression of CD62L” value [1]?
The value was “increased”.

What about the “proportion of memory T cells” value [1] of the same compound?
Its value is “increased”.

What about the apoptotic cells [5] of the same compound?
The apoptotic cells was “decreased”.

And the living cells [5]?
Its living cells is “increased”.

What about the “division ability of T cells” value [6] of the same compound?
The value was “increased”.

And the “proliferation ability of T cells” value [6]?
Its value is “increased”.

And the “appearance frequency of memory T cells” value [7]?
Its value is “high frequency”.

What about the “proliferation ability after re-stimulation with WT1332-pulsed PBMC” value ([10]; compared with cells cultured with DMSO or retinoic acid, no IL-2) of the same compound?
Its value is “high proliferation ability”.

And the “proportion of memory-type CD4+ T cells” value ([10]; stimulated with human WT1332)?
The value was “increased”.

Which results are given for CC1=C(/C=C/C(C)=C/C=C/C(C)=C/CO)C(C)(C)CCC1 [retinol, all-trans retinol]?
IFN-γ producing cells [11]: increased; number of cells [11]: increased

O=C(O)c1ccc2cc(-c3ccc(O)c(C45CC6CC(CC(C6)C4)C5)c3)ccc2c1 [CD437] was tested. Which “expression of CD62L” value [1] did it give?
The value was “decreased”.

And the “proportion of memory T cells” value [1]?
The value was “decreased”.
